Measurements: US20160120863A1, “SLC2A TRANSPORTER INHIBITORS” (IOMET PHARMA LTD., priority 2013, published 2016)

How the values were obtained:
Format in all cases: cell-based
human GLUT3 = biological target: T1, human GLUT3 (Homo sapiens, UniProt P11169); test: [3H]-deoxy-D-glucose uptake assay, GLUT3; conditions: [3H]-deoxy-D-glucose uptake in HEK293 cells stably expressing human GLUT3
T1 construct: expressed in transfected cells
T1 sequence (P11169 1-496): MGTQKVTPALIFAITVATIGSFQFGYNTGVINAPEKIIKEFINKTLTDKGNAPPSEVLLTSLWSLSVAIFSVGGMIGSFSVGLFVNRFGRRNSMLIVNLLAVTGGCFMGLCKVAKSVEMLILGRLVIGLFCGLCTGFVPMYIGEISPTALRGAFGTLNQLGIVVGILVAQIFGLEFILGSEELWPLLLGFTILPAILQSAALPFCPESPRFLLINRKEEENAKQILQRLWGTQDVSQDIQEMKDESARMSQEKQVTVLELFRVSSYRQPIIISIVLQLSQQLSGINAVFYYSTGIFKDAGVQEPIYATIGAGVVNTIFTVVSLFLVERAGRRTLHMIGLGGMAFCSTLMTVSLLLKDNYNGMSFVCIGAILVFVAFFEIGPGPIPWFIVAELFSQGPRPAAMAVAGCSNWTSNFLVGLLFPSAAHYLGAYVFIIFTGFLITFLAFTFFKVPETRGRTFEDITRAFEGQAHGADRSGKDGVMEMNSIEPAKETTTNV
Experimental: (§1) HEK293 cells were engineered to stably express either human GLUT1, GLUT2, GLUt3 or GLUT4 by transfection with the pReceiver-Lv105 plasmid, containing either hGLUT1, hGLUT2, hGLUT3, or hGLUT4 gene constructs with lipofectamine 2000, hGLUT1- hGLUT2- hGLUT3- or hGLUT4-overexpressing polyclonal populations were isolated under purinomycin selective pressure (1 μg/ml) and maintained in Dulbecco's modified Eagle's medium supplemented with 1 μg/ml purinomycin+10% foetal bovine serum (FBS).
(§2) 60,000 cells per well were seeded overnight into poly-D-lysine coasted 96-well plates. Following media removal, cells were washed twice in warm glucose-free uptake buffer (25 mM HEPES/KOH pH 7.4, 125 mM NaCl, 4.8 mM KCl, 1.2 mM MgSO4, 1.2 mM CaCl2, 1.2 mM KH2PO4). 90 μl of test compounds were added in glucose-free uptake buffer and cells were incubated at 37° C. for 30 min. 10 μl of [3H]-deoxy-D-glucose (0.25 μCi, 125 μM final assay concentration) was then added per well in glucose-free uptake buffer and uptake was allowed to proceed at 37° C. for 30 min.
(§3) Cells were then washed twice with ice-cold PBS and 100 μl of Microscint-20 was added per well. Glucose uptake was quantified with a scintillation counter. The half maximal inhibitory concentration (IC50) (a measure of the effectiveness of the test compound in inhibiting glucose uptake) was determined.

human GLUT4 = biological target: T2, human GLUT4 (Homo sapiens, UniProt P14672); test: [3H]-deoxy-D-glucose uptake assay, GLUT4; conditions: [3H]-deoxy-D-glucose uptake in HEK293 cells stably expressing human GLUT4
T2 construct: expressed in transfected cells
T2 sequence (P14672 1-509): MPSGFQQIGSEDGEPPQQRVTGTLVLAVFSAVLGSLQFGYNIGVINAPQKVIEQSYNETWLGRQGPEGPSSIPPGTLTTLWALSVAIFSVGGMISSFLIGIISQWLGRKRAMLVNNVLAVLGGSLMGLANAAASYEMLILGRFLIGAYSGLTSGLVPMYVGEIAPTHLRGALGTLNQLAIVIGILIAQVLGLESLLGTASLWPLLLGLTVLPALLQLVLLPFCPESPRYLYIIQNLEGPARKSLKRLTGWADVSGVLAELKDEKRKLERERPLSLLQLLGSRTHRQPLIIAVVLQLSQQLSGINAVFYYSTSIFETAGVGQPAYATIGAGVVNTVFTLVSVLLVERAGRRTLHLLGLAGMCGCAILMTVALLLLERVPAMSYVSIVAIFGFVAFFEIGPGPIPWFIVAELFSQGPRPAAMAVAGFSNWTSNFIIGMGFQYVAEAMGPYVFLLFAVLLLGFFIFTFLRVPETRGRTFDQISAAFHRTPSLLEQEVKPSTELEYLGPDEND
Experimental: as §1, §2, §3

human GLUT1 = biological target: T3, human GLUT1 (Homo sapiens, UniProt P11166); test: [3H]-deoxy-D-glucose uptake assay, GLUT1; conditions: [3H]-deoxy-D-glucose uptake in HEK293 cells stably expressing human GLUT1
T3 construct: expressed in transfected cells
T3 sequence (P11166 1-492): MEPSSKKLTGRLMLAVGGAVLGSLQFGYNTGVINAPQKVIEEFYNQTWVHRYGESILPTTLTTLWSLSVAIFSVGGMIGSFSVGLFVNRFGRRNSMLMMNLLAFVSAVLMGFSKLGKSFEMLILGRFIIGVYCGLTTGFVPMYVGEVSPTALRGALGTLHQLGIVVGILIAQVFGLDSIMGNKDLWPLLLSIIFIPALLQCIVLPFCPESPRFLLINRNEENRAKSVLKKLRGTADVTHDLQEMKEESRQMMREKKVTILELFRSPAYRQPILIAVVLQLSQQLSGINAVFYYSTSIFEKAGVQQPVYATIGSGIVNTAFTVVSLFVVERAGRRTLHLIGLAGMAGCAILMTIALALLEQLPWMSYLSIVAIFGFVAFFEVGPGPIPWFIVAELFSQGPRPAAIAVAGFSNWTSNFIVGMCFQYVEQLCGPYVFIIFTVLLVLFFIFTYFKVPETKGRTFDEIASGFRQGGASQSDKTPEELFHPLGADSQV
Outline: (§4)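 HEK293 cells stably overexpressing human GLUT1 or GLUT2, seeded at 60,000 per well, treated with compounds in glucose-free uptake buffer for 30 min at 37 °C. [3H]-deoxy-D-glucose uptake quantified by scintillation counting after ice-cold PBS washes; IC50 determined.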

human GLUT2 = biological target: T4, human GLUT2 (Homo sapiens, UniProt P11168); test: [3H]-deoxy-D-glucose uptake assay, GLUT2; conditions: [3H]-deoxy-D-glucose uptake in HEK293 cells stably expressing human GLUT2
T4 construct: expressed in transfected cells
T4 sequence (P11168 1-524): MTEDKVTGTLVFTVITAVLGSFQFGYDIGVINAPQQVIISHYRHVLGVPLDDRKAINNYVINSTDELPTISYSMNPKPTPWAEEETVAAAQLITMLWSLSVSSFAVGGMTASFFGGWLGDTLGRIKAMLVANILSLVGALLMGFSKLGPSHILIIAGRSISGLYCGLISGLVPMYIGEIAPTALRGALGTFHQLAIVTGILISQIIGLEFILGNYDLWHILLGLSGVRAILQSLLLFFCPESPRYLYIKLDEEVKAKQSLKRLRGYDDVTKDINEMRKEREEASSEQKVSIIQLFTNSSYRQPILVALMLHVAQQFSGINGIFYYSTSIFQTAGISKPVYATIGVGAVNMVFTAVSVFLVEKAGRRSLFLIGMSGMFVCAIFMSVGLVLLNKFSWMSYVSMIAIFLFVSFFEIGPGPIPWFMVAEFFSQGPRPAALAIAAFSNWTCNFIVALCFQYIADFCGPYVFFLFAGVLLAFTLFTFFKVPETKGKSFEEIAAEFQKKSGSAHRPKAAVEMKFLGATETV
Outline: as §4

Row | SMILES | GLUT3 pIC50 (human GLUT3) | GLUT4 pIC50 (human GLUT4) | GLUT1 pIC50 (human GLUT1) | GLUT2 pIC50 (human GLUT2)
1 | COCC(=O)N1CCN(Cc2c(-c3ccc(Cl)cc3Cl)nc3cnc(C4CC4)cn23)CC1 [Compound 311] | +++ (pIC50 ≧ 6.00) | +++ (pIC50 ≧ 6.00) | +++ (pIC50 ≧ 6.00) | +++ (pIC50 ≧ 6.00)
2 | CC(=O)N1CCN(Cc2c(-c3ccc(Cl)cc3Cl)nc3ccc(NS(C)(=O)=O)cn23)CC1 [Compound 313] | +++ (pIC50 ≧ 6.00) | +++ (pIC50 ≧ 6.00) | +++ (pIC50 ≧ 6.00) | ++ (pIC50 5.00-5.99)
3 | CCS(=O)(=O)Nc1ccc2nc(-c3ccc(Cl)cc3)c(CN3CCN(C(C)=O)CC3)n2c1 [Compound 314] | +++ (pIC50 ≧ 6.00) | +++ (pIC50 ≧ 6.00) | +++ (pIC50 ≧ 6.00) | ++ (pIC50 5.00-5.99)
4 | CCS(=O)(=O)N(C)c1ccc2nc(-c3ccc(Cl)cc3)c(CN3CCN(C(C)=O)CC3)n2c1 [Compound 316] | +++ (pIC50 ≧ 6.00) | +++ (pIC50 ≧ 6.00) | +++ (pIC50 ≧ 6.00) | ++ (pIC50 5.00-5.99)
5 | O=C(CO)N1CCN(Cc2c(-c3ccc(Cl)cc3Cl)nc3cnc(C4CC4)cn23)CC1 [Compound 321] | +++ (pIC50 ≧ 6.00) | +++ (pIC50 ≧ 6.00) | +++ (pIC50 ≧ 6.00) | +++ (pIC50 ≧ 6.00)
6 | CC(C)(O)C(=O)N1CCN(Cc2c(-c3ccc(Cl)cc3Cl)nc3cnc(C4CC4)cn23)CC1 [Compound 322] | +++ (pIC50 ≧ 6.00) | +++ (pIC50 ≧ 6.00) | +++ (pIC50 ≧ 6.00) | +++ (pIC50 ≧ 6.00)
7 | CC(=O)N1CCN(Cc2c(-c3ccc(Cl)cc3)nc3ccc(N4CCCCS4(=O)=O)cn23)CC1 [Compound 326] | +++ (pIC50 ≧ 6.00) | +++ (pIC50 ≧ 6.00) | +++ (pIC50 ≧ 6.00) | +++ (pIC50 ≧ 6.00)
8 | CC(=O)N1CCN(Cc2c(-c3ccc(Cl)cc3Cl)nc3ccc(N(C)S(C)(=O)=O)cn23)CC1 [Compound 333] | +++ (pIC50 ≧ 6.00) | +++ (pIC50 ≧ 6.00) | +++ (pIC50 ≧ 6.00) | +++ (pIC50 ≧ 6.00)
9 | CS(=O)(=O)Nc1ccc2nc(-c3ccc(Cl)cc3Cl)c(CN3CCN(C(=O)C4COC4)CC3)n2c1 [Compound 334] | +++ (pIC50 ≧ 6.00) | +++ (pIC50 ≧ 6.00) | +++ (pIC50 ≧ 6.00) | ++ (pIC50 5.00-5.99)
10 | CN(c1ccc2nc(-c3ccc(Cl)cc3Cl)c(CN3CCN(C(=O)C4COC4)CC3)n2c1)S(C)(=O)=O [Compound 335] | +++ (pIC50 ≧ 6.00) | +++ (pIC50 ≧ 6.00) | +++ (pIC50 ≧ 6.00) | +++ (pIC50 ≧ 6.00)
11 | COCC(=O)N1CCN(Cc2c(-c3ccc(Cl)cc3Cl)nc3ccc(NS(C)(=O)=O)cn23)CC1 [Compound 336] | +++ (pIC50 ≧ 6.00) | +++ (pIC50 ≧ 6.00) | +++ (pIC50 ≧ 6.00) | ++ (pIC50 5.00-5.99)
12 | CC(=O)N1CCN(Cc2c(-c3ccc(Cl)cc3Cl)nc3ccc(N4CCCS4(=O)=O)cn23)CC1 [Compound 339] | +++ (pIC50 ≧ 6.00) | +++ (pIC50 ≧ 6.00) | +++ (pIC50 ≧ 6.00) | +++ (pIC50 ≧ 6.00)
13 | CC(=O)N1CCN(Cc2c(-c3ccc(Cl)cc3)nc3ccc(N(C)S(=O)(=O)C(C)C)cn23)CC1 [Compound 340] | +++ (pIC50 ≧ 6.00) | +++ (pIC50 ≧ 6.00) | +++ (pIC50 ≧ 6.00) | ++ (pIC50 5.00-5.99)

Next, values leading:

Row | GLUT3 pIC50 (human GLUT3) | GLUT4 pIC50 (human GLUT4) | GLUT1 pIC50 (human GLUT1) | GLUT2 pIC50 (human GLUT2) | SMILES
14 | +++ (pIC50 ≧ 6.00) | +++ (pIC50 ≧ 6.00) | +++ (pIC50 ≧ 6.00) | +− (pIC50 < 4.00) | CCCS(=O)(=O)N(C)c1ccc2nc(-c3ccc(Cl)cc3)c(CN3CCN(C(C)=O)CC3)n2c1 [Compound 341]
15 | +++ (pIC50 ≧ 6.00) | +++ (pIC50 ≧ 6.00) | +++ (pIC50 ≧ 6.00) | ++ (pIC50 5.00-5.99) | CN(c1ccc2nc(-c3ccc(Cl)cc3Cl)c(CN3CCn4ncnc4C3)n2c1)S(C)(=O)=O [Compound 346]
16 | +++ (pIC50 ≧ 6.00) | +++ (pIC50 ≧ 6.00) | +++ (pIC50 ≧ 6.00) | ++ (pIC50 5.00-5.99) | CC(=O)N1CCN(Cc2c(-c3ccc(Cl)cc3)nc3ccc(S(=O)(=O)N(C)C)cn23)CC1 [Compound 350]
17 | +++ (pIC50 ≧ 6.00) | +++ (pIC50 ≧ 6.00) | +++ (pIC50 ≧ 6.00) | ++ (pIC50 5.00-5.99) | CNS(=O)(=O)c1ccc2nc(-c3ccc(Cl)cc3)c(CN3CCN(C(C)=O)CC3)n2c1 [Compound 351]
18 | +++ (pIC50 ≧ 6.00) | +++ (pIC50 ≧ 6.00) | +++ (pIC50 ≧ 6.00) | ++ (pIC50 5.00-5.99) | CCN(c1ccc2nc(-c3ccc(Cl)cc3)c(CN3CCN(C(C)=O)CC3)n2c1)S(C)(=O)=O [Compound 353]
19 | +++ (pIC50 ≧ 6.00) | +++ (pIC50 ≧ 6.00) | +++ (pIC50 ≧ 6.00) | +++ (pIC50 ≧ 6.00) | CN(c1ccc2nc(-c3ccc(Cl)cc3Cl)c(CN3CCNC(=O)C3)n2c1)S(C)(=O)=O [Compound 355]
